Measurements published in article PMC5242521 (PLoS ONE, 2017).
Where “and” joins values, the source holds several entries; their conditions need not be identical. Identical values can stand only once. Entries after “also recorded” stand apart in the source; their conditions may differ.

Legend:
[1] = test system: P-gp; details: ref [78]; cited from earlier work
[2] = target: T1, OCT1 (Homo sapiens, UniProt O15245); assay: OCT1 activity: DAPI accumulation in HEK-OCT1 cells; details: for inhibition at 100 μM: human, pH 7.4
T1 sequence (O15245 1-554): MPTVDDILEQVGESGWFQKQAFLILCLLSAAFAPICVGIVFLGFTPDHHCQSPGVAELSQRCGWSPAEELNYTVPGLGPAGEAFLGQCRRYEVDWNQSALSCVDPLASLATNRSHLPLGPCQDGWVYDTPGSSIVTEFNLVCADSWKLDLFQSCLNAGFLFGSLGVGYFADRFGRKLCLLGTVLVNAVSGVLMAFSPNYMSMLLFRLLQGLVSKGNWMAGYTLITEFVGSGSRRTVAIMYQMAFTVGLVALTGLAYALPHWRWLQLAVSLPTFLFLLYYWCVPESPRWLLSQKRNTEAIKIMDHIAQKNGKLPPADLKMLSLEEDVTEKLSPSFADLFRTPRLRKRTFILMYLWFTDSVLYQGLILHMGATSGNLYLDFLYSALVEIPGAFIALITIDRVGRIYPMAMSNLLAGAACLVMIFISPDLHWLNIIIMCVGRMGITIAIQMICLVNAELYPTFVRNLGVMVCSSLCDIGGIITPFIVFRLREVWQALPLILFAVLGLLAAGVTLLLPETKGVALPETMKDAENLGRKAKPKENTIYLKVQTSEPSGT
Method: (§1) The effects of pyrethroids on activity of ABC and SLC transporters were determined through measuring cellular accumulation or retention of fluorescent or radiolabeled reference substrates for transporters, in the presence or absence of reference inhibitors, as previously described. The nature of cells and reference substrates and inhibitors used for transport assays are summarized in S3 Table.
The nature of substrates and reference inhibitors and the incubation times with substrates, that varied according to the transporter, were selected in agreement with previous studies and are indicated in S3 Table. The total incubation volume with substrates was 200 μL/well. […] An aliquot of cell lysate (5 μL) was then taken for determining cellular protein content by the Bradford method.
(§2) Intracellular concentrations of reference substrates were initially expressed as fluorescence arbitrary units (for fluorescent dye substrates) or as moles (for radiolabeled substrates) and normalized to cellular protein content, determined by the Bradford method. They were finally used for calculating percentage of transporter activity, according to the following equations [41, 45]: %ABCtransporter activity=([Substrateref inh]-[Substratepyrethroid])×100/([Substrateref inh]-[Substratecontrol]) (1) %SLC transporter activity=([Substratepyrethroid]-[Substratref inh])×100/([Substratecontrol]-[Substrateref inh]) (2) with [Substratepyrethroid] = cellular concentration of reference substrate in the presence of pyrethroid, [Substrateref inh] = cellular concentration of reference substrate in the presence of reference inhibitor and [Substratecontrol] = cellular concentration of reference substrate in control cells not exposed to pyrethroid or reference inhibitor.
(§3) The initial tested concentration of pyrethroids was 100 μM. […] Such concentrations were calculated using GraphPad Prism software (GraphPad Software, La Jolla, CA), through nonlinear regression based on the four parameter logistic function using the following equations: […]

[3] = target: P-gp (Homo sapiens, UniProt P08183); assay: P-gp activity: rhodamine 123 accumulation in MCF7R cells; details: pyrethroid 100 μM
Method: as §1
For accumulation assays (performed for all transporters, excepted BCRP), transporter-expressing cells usually cultured in 48-well plates were first incubated at 37°C with reference substrates in the absence (control) or presence of pyrethroids or reference inhibitors, in a well-defined transport assay medium, consisting of 136 mM NaCl, 5.3 mM KCl, 1.1mM KH2PO4, 0.8 mM MgSO4, 1.8 mM CaCl2, 10 mM HEPES, 11 mM D-glucose and adjusted to pH = 7.4 (excepted for MATE transporter assays, for which pH was set to 8.4). The nature of substrates and reference inhibitors and the incubation times with substrates, that varied according to the transporter, were selected in agreement with previous studies and are indicated in S3 Table. The total incubation volume with substrates was 200 μL/well. After washing twice in phosphate-buffered saline (PBS) (200 μL/well/washing), cells were lysed in distilled water (155 μL/well). An aliquot of cell lysate (5 μL) was then taken for determining cellular protein content by the Bradford method. The rest of lysate (150 μL/well) was used for measuring intracellular accumulation of reference substrates by scintillation counting or spectrofluorimetry using a SpectraMax Gemini SX spectrofluorometer (Molecular Devices, Sunnyvale, CA, USA) (excitation and emission wavelengths were 485 and 535 nm, respectively, for rhodamine 123 and fluorescein, and 355 and 460 nm, respectively, for DAPI).
as §2, §3

[4] = parameters: method as in PMID 12708229; details: human subjects environmentally exposed; ref [70]; cited from earlier work
[5] = target: T2, OATP1B1 (Homo sapiens, UniProt Q9Y6L6); assay: OATP1B1 activity: E3S accumulation in CHO-OATP1B1 cells; format: cell-based; details: pyrethroid 100 μM; CHO-OATP1B1 cells, E3S
T2 construct: expressed in transfected cells; host or cells: CHO
T2 sequence (Q9Y6L6 1-691): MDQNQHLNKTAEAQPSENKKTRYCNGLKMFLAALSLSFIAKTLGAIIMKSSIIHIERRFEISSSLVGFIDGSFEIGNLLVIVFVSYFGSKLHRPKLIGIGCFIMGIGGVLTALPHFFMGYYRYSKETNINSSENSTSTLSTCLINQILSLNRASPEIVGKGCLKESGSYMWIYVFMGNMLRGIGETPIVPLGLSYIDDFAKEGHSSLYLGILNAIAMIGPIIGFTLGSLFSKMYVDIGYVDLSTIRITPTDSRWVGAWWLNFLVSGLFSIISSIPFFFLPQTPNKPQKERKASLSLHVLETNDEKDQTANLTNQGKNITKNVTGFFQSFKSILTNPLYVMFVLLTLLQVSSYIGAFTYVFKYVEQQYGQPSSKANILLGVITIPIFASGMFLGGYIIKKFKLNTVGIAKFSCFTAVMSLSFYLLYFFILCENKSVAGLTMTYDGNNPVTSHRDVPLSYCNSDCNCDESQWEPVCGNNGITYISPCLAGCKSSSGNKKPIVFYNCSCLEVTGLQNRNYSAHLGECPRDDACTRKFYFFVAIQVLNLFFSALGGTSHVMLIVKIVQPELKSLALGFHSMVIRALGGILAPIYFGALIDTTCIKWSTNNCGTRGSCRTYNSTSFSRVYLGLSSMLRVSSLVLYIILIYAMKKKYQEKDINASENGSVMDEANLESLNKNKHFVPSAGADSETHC
Method: (§4) The initial tested concentration of pyrethroids was 100 μM.

[6] = test system: P-gp; details: ref [26], [27]; cited from earlier work
[7] = target: T3, BCRP (Homo sapiens, UniProt Q9UNQ0); assay: BCRP activity: Hoechst 33342 retention in HEK-BCRP cells; format: cell-based; details: pyrethroid 100 μM
T3 construct: expressed in transfected cells; host or cells: HEK293
T3 sequence (Q9UNQ0 1-655): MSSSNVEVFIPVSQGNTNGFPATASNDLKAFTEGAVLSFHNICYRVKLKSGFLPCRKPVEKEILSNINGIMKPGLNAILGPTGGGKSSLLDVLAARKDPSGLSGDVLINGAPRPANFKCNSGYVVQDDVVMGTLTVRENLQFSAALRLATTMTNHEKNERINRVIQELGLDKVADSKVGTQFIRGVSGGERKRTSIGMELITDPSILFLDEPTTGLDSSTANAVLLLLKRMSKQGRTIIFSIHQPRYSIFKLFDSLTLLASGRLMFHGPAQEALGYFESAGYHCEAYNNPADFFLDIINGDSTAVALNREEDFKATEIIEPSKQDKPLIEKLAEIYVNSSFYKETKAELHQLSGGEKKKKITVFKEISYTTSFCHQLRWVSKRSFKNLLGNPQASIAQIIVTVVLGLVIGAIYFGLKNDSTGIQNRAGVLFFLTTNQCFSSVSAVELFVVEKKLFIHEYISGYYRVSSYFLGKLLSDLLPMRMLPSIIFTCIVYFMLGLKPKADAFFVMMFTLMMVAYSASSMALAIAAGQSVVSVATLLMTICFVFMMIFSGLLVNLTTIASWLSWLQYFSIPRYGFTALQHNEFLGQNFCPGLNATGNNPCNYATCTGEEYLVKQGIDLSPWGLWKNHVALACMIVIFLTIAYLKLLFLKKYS
Method: For retention assay (used for BCRP activity), HEK-BCRP cells cultured in 48-well plates were first loaded at 37°C with transport assay (200 μL/well) containing 16.2 μM Hoechst 33342 for 30 min. After washing twice in PBS (200 μL/well/washing), cells were reincubated in Hoechst 33342-free transport assay medium (200 μL/well) at 37°C for 90 min in the absence or presence of pyrethroids or of the BCRP reference inhibitor fumitremorgin C used at 10 μM. Cells were next lysed in distilled water (155 μL/well) after washing twice in PBS (200 μL/well/washing). The cell lysate was finally used for determining cellular protein content and intracellular retention of Hoechst 33342 (by spectrofluorimetry: excitation and emission wavelengths were 355 and 460 nm, respectively), as described above.
as §4

[8] = test system: BCRP ATPase activity; details: ref [28]; cited from earlier work

Chain of P-gp (Homo sapiens, UniProt P08183) (P08183 whole entry): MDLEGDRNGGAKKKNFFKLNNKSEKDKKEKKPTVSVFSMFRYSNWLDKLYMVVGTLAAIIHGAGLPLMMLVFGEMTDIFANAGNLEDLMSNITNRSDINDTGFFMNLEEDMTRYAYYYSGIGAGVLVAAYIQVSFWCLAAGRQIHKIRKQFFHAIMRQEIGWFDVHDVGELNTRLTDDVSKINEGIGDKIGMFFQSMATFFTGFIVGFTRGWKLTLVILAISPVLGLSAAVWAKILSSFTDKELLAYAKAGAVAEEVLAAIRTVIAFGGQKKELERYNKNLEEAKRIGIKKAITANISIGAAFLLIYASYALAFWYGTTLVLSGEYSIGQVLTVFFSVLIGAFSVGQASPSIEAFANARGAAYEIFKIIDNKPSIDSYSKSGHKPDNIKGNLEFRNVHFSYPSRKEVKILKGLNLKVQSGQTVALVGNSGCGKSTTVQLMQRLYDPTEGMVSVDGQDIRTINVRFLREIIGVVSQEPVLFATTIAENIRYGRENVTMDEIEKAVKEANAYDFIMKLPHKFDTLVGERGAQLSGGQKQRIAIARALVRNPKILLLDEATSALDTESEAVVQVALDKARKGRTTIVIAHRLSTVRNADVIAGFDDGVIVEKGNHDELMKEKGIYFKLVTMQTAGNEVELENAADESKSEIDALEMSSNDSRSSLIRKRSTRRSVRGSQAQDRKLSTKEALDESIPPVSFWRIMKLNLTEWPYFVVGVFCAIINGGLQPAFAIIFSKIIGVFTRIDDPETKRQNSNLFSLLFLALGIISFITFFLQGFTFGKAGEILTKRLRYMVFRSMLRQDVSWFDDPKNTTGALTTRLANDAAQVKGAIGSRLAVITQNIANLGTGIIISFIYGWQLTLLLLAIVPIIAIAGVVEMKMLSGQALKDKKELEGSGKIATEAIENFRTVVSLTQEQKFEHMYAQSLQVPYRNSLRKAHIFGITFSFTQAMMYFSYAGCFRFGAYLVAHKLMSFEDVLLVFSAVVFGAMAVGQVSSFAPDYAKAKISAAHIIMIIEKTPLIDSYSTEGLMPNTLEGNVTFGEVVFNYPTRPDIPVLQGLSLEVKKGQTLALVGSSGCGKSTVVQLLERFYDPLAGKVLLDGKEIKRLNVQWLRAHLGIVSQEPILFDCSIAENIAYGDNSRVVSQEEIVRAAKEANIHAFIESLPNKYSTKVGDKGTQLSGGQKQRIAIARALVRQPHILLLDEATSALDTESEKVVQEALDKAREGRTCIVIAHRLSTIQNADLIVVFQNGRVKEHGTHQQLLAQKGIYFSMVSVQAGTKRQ

For `CC1(C)[C@H](C(=O)O[C@H](C#N)c2cccc(Oc3ccccc3)c2)[C@@H]1C=C(Br)Br` [deltamethrin], the “efflux by P-gp” value [1] is listed as “not effluxed by P-gp”, the inhibition at 100 μM [2] is listed as 30.1 to 48.8% and the “effect on P-gp activity” value [3] is listed as “did not inhibit”. For the same compound, the blood concentration [4] was < 5 μg/L and < 12.8 nM.
For `CC(C)[C@H](C(=O)O[C@H](C#N)c1cccc(Oc2ccccc2)c1)c1ccc(Cl)cc1` [esfenvalerate], the “inhibition of OATP1B1 activity” value [5] is given as “less than 50%”, the “effect on P-gp activity or ATPase activity” value [6] is given as “inhibit” and the “effect on OCT1 activity” value ([2]; pyrethroid 100 μM, DAPI) is given as “failed to significantly alter”. The “effect on P-gp activity” value [3] was “did not alter”.
For `CC1(C)C(C=C(Cl)Cl)C1C(=O)OCc1cccc(Oc2ccccc2)c1` (stereo not shown) [permethrin], the “effect on BCRP activity” value [7] is given as “without inhibiting”, the “effect on P-gp activity or ATPase activity” value [6] is given as “inhibit” and the “effect on BCRP ATPase activity” value [8] is given as “blocked; also recorded: inhibited”. The “effect on P-gp activity” value [3] was “did not alter” and the blood concentration [4] was < 5 μg/L and < 12.8 nM.
In the case of `CC(C)=CC1C(C(=O)OCc2coc(Cc3ccccc3)c2)C1(C)C` (stereo not shown) [resmethrin], the “effect on BCRP activity” value [7] is listed as “without inhibiting”, the inhibition at 100 μM [2] is listed as 48.8% and the “effect on BCRP ATPase activity” value [8] is listed as “inhibited”.
